Laboratory results: PubChem BioAssay (NCI)
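Briefly, cells in 96-well plates were exposed to five compound concentrations for 48 h, and endpoints were estimated by linear interpolation. At the TGI there is no net growth.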

Tests used:
Experiment in all cases: growth of human tumour cells (NCI), 48 h
[1] = system: MALME-3M melanoma
[2] = system: SN12C renal
[3] = system: K-562 leukemia
[4] = system: COLO 205 colon
[5] = system: SK-OV-3 ovarian
[6] = system: EKVX NSCLC
[7] = system: NCI-H522 lung
[8] = system: SW-620 colon
[9] = system: SF-268 CNS
[10] = system: M14 melanoma
[11] = system: DMS 273 small cell lung
[12] = system: A549 NSCLC
[13] = system: RXF 393 renal
[14] = system: LXFL 529 NSCLC
[15] = system: HCC-2998 colon
[16] = system: OVCAR-5 ovarian
[17] = system: HT29 colon
[18] = system: U251 CNS
[19] = system: SNB-75 CNS
[20] = system: KM12 colon
[21] = system: UACC-257 melanoma
[22] = system: DMS 114 small cell lung
[23] = system: HOP-18 NSCLC
[24] = system: A498 renal
[25] = system: IGROV1 ovarian
[26] = system: LOX IMVI melanoma
[27] = system: SNB-78 CNS
[28] = system: SF-539 CNS
[29] = system: HL-60(TB) leukemia
[30] = system: TK-10 renal
[31] = system: UO-31 renal
[32] = system: XF 498 CNS
[33] = system: HCT-116 colon
[34] = system: CCRF-CEM leukemia
[35] = system: OVCAR-3 ovarian
[36] = system: SF-295 CNS
[37] = system: ACHN renal
[38] = system: MOLT-4 leukemia
[39] = system: NCI-H23 lung
[40] = system: RPMI-8226 leukemia
[41] = system: UACC-62 melanoma
[42] = system: SK-MEL-28 melanoma
[43] = system: SK-MEL-5 melanoma
[44] = system: 786-0 renal
[45] = system: KM20L2 colon
[46] = system: SR leukemia
[47] = system: HOP-62 NSCLC
[48] = system: NCI-H226 lung
[49] = system: HOP-92 NSCLC
[50] = system: OVCAR-8 ovarian
[51] = system: HCT-15 colon
[52] = system: NCI-H460 lung
[53] = system: SK-MEL-2 melanoma
[54] = system: CAKI-1 renal
[55] = system: SNB-19 CNS
[56] = system: M19-MEL melanoma
[57] = system: DLD-1 colon
[58] = system: OVCAR-4 ovarian

`Cc1ccc(NC(=O)CCc2cc(C(C)(C)C)nc(=S)[nH]2)cc1C` was tested. Which TGI [1] did it give?
Its TGI is greater than 100 µM.

What about the TGI [2] of the same compound?
Its TGI is greater than 100 µM.

And the TGI [3]?
The TGI was greater than 100 µM.

What about the TGI [4] of the same compound?
The TGI was greater than 100 µM.

What about the TGI [5] of the same compound?
The TGI was greater than 100 µM.

What about the TGI [6] of the same compound?
Its TGI is greater than 100 µM.

And the TGI [7]?
Its TGI is greater than 100 µM.

What about the TGI [8] of the same compound?
Its TGI is greater than 100 µM.

And the TGI [9]?
The TGI was greater than 100 µM.

And the TGI [10]?
Its TGI is greater than 100 µM.

And the TGI [11]?
The TGI was greater than 100 µM.

And the TGI [12]?
The TGI was greater than 100 µM.

And the TGI [13]?
Its TGI is greater than 100 µM.

What about the TGI [14] of the same compound?
The TGI was greater than 100 µM.

What about the TGI [15] of the same compound?
Its TGI is greater than 100 µM.

And the TGI [16]?
Its TGI is greater than 100 µM.

And the TGI [17]?
Its TGI is greater than 100 µM.

And the TGI [18]?
The TGI was greater than 100 µM.

What about the TGI [19] of the same compound?
Its TGI is greater than 100 µM.

What about the TGI [20] of the same compound?
Its TGI is greater than 100 µM.

What about the TGI [21] of the same compound?
Its TGI is greater than 100 µM.

What about the TGI [22] of the same compound?
Its TGI is greater than 100 µM.

And the TGI [23]?
The TGI was greater than 100 µM.

And the TGI [24]?
The TGI was greater than 100 µM.

And the TGI [25]?
The TGI was greater than 100 µM.

What about the TGI [26] of the same compound?
Its TGI is greater than 100 µM.

And the TGI [27]?
Its TGI is greater than 100 µM.

And the TGI [28]?
Its TGI is greater than 100 µM.

And the TGI [29]?
The TGI was greater than 100 µM.

What about the TGI [30] of the same compound?
The TGI was greater than 100 µM.

What about the TGI [31] of the same compound?
Its TGI is greater than 100 µM.

And the TGI [32]?
Its TGI is greater than 100 µM.

And the TGI [33]?
The TGI was greater than 100 µM.

And the TGI [34]?
Its TGI is greater than 100 µM.

What about the TGI [35] of the same compound?
Its TGI is greater than 100 µM.

What about the TGI [36] of the same compound?
The TGI was greater than 100 µM.

What about the TGI [37] of the same compound?
Its TGI is greater than 100 µM.

And the TGI [38]?
The TGI was greater than 100 µM.

What about the TGI [39] of the same compound?
Its TGI is greater than 100 µM.

What about the TGI [40] of the same compound?
The TGI was greater than 100 µM.

And the TGI [41]?
The TGI was greater than 100 µM.

And the TGI [42]?
Its TGI is greater than 100 µM.

What about the TGI [43] of the same compound?
The TGI was greater than 100 µM.

And the TGI [44]?
The TGI was greater than 100 µM.

What about the TGI [45] of the same compound?
Its TGI is greater than 100 µM.

And the TGI [46]?
Its TGI is greater than 100 µM.

What about the TGI [47] of the same compound?
The TGI was greater than 100 µM.

And the TGI [48]?
The TGI was greater than 100 µM.

What about the TGI [49] of the same compound?
The TGI was greater than 100 µM.

What about the TGI [50] of the same compound?
Its TGI is greater than 100 µM.

What about the TGI [51] of the same compound?
The TGI was greater than 100 µM.

What about the TGI [52] of the same compound?
Its TGI is greater than 100 µM.

And the TGI [53]?
Its TGI is greater than 100 µM.

And the TGI [54]?
Its TGI is greater than 100 µM.

What about the TGI [55] of the same compound?
Its TGI is greater than 100 µM.

Which results are given for `CCCNC(=S)NNC(=O)CSc1nc(-c2ccccc2)c(-c2ccccc2)[nH]1`?
TGI [1]: 95.4 µM; TGI [2]: > 100 µM; TGI [4]: > 100 µM; TGI [5]: > 100 µM; TGI [6]: 89.7 µM; TGI [7]: 78.1 µM; TGI [8]: > 100 µM; TGI [56]: > 100 µM; TGI [9]: > 100 µM; TGI [10]: 89.6 µM; TGI [11]: > 100 µM; TGI [57]: > 100 µM; TGI [12]: > 100 µM; TGI [14]: > 100 µM; TGI [16]: > 100 µM; TGI [17]: > 100 µM; TGI [18]: > 100 µM; TGI [19]: > 100 µM; TGI [20]: > 100 µM; TGI [21]: > 100 µM; TGI [22]: > 100 µM; TGI [24]: > 100 µM; TGI [25]: > 100 µM; TGI [26]: > 100 µM; TGI [27]: > 100 µM; TGI [28]: > 100 µM; TGI [29]: > 100 µM; TGI [30]: > 100 µM; TGI [58]: > 100 µM; TGI [31]: > 100 µM; TGI [32]: > 100 µM; TGI [33]: > 100 µM; TGI [34]: > 100 µM; TGI [35]: 79.7 µM; TGI [36]: > 100 µM; TGI [37]: > 100 µM; TGI [38]: 61.7 µM; TGI [39]: > 100 µM; TGI [40]: > 100 µM; TGI [41]: > 100 µM; TGI [42]: > 100 µM; TGI [43]: 62.1 µM; TGI [44]: > 100 µM; TGI [45]: > 100 µM; TGI [46]: 93.4 µM; TGI [47]: > 100 µM; TGI [48]: > 100 µM; TGI [49]: 97.8 µM; TGI [50]: > 100 µM; TGI [51]: > 100 µM; TGI [52]: > 100 µM; TGI [53]: > 100 µM; TGI [54]: 94.6 µM; TGI [55]: > 100 µM
